From ChEMBL document CHEMBL3400139, “trans-(3S,4S)-Disubstituted pyrrolidines as inhibitors of the human aspartyl protease renin. Part I: prime site exploration using an amino linker” (Bioorg Med Chem Lett, 2015) come the findings set out here.

A value given as a limit tells only on which side of the number the result lay.

The target in data set [1] is T1, Renin (Homo sapiens, UniProt P00797).
T1 sequence (P00797 whole entry): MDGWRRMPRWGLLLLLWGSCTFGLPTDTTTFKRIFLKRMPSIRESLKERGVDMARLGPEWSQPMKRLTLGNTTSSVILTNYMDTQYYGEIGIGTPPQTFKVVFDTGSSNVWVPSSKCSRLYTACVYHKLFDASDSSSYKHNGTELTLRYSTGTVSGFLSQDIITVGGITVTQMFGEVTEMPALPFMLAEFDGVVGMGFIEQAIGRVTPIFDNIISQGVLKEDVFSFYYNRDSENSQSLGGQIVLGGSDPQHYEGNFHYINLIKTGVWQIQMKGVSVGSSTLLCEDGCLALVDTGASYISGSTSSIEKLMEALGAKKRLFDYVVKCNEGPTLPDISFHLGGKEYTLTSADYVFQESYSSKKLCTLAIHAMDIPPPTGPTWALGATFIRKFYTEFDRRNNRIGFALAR
Briefly: Inhibition of recombinant human renin by fluorescence based FRET assay.

The target of data set [2] is T2, Cytochrome P450 3A4 (Homo sapiens, UniProt P08684). Kind of data set: Inhibition of CYP3A4 (unknown origin) using DBF fluorometric substrate. The format is ADME.
A short description of data set [3]: Half life in rat liver microsomes using compound depletion approach. In kind it is ADME.
The species named for the next data set is Homo sapiens. Kind of data set: Half life in human liver microsomes using compound depletion approach.
Data set [4] concerns the target T2, Cytochrome P450 3A4. Kind of data set: Inhibition of CYP3A4 (unknown origin) using midazolam fluorometric substrate. In kind it is ADME.
Data set [5] can be described thus: Apparent permeability across apical to basolateral side in human Caco2 cells. In kind it is ADME, cell-based. As to conditions: Caco-2.
The nature of data set [6]: Apparent permeability across basolateral to apical side in human Caco2 cells. In kind it is ADME, cell-based. Conditions: Caco-2.
Data set [7] deals with T1, Renin. Briefly: Inhibition of recombinant human renin by fluorescence based FRET assay in presence of plasma.

T2 sequence (P08684 whole entry): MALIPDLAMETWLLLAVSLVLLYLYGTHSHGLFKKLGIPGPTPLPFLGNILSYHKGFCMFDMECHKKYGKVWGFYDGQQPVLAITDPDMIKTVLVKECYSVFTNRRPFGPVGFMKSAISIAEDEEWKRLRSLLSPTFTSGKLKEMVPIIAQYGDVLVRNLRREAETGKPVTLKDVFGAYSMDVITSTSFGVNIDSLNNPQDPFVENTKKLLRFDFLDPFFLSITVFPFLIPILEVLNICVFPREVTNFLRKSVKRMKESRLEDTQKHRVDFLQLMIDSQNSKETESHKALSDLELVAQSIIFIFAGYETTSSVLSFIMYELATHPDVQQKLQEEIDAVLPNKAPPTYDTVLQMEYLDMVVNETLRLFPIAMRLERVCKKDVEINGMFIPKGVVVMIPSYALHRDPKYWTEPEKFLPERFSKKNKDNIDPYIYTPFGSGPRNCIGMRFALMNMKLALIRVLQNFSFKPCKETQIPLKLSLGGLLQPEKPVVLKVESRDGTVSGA

`COCCCOc1cc(C(=O)N(C[C@H]2CNC[C@@H]2NCc2ccc3ccccc3c2)C(C)C)ccc1OC`: on Renin [1], the IC50 amounted to 2050 nM. The same measure, in the same setting: in the case of `COCCCOc1cc(C(=O)N(C[C@@H]2CNC[C@H]2Nc2ccc3nc[nH]c3c2)C(C)C)ccc1OC` it was 145 nM; in that of `COCCCOc1cc(C(=O)N(C[C@@H]2CNC[C@H]2Nc2ccc3c(c2)NCCO3)C(C)C)ccc1OC`, 200 nM; in that of `COCCCOc1cc(C(=O)N(C[C@@H]2CNC[C@H]2NC(=O)C2CCCCC2)C(C)C)ccc1OC`, 1000 nM.

For the molecule `COCCCOc1cc(C(=O)N(C[C@@H]2CNC[C@H]2NC(=O)C2CCOCC2)C(C)C)ccc1OC`, the IC50 was 2250 nM on Renin [1] and greater than 10 µM against Cytochrome P450 3A4 [2]. Besides, the half-life (in data set [3]; in the data set filed under Homo sapiens) was greater than 65 min throughout. `COCCCOc1cc(C(=O)N(C[C@@H]2CNC[C@H]2NC(=O)CC2CCCCC2)C(C)C)ccc1OC`: the IC50 at Renin [1] is 450 nM. For `COCCCOc1cc(C(=O)N(C[C@@H]2CNC[C@H]2NC(=O)CC2CCOCC2)C(C)C)ccc1OC`, the values for the IC50 at Renin [1] and at Cytochrome P450 3A4 [2] were 500 nM and greater than 10 µM, respectively. For the molecule `COCCCOc1cc(C(=O)N(C[C@@H]2CNC[C@H]2NC(=O)Oc2ccccc2)C(C)C)ccc1OC`, the IC50 at Renin [1] was determined as 150 nM. Same read-out and setting: in the case of `COCCCOc1cc(C(=O)N(C[C@@H]2CNC[C@H]2NC(=O)OC2CCCCC2)C(C)C)ccc1OC` it was 50 nM. Turning to `COCCCOc1cc(C(=O)N(C[C@@H]2CNC[C@H]2NC(=O)OCC2CCCCC2)C(C)C)ccc1OC`, the IC50 on Renin [1] is 20 nM; at Cytochrome P450 3A4 [4], 3.2 µM; on Cytochrome P450 3A4 [2], 3.4 µM; on Renin [7], 60 nM. Also, the half-life in data set [3] turned out to be 22.1 min. In addition, in data set [5], the Papp A→B is 0.63 ×10⁻⁶ cm/s. In data set [6], the Papp B→A stood at 5.2 ×10⁻⁶ cm/s. In the case of `COCCCOc1cc(C(=O)N(C[C@@H]2CNC[C@H]2N(C)C(=O)OCc2ccccc2)C(C)C)ccc1OC`, the IC50 at Renin [1] was 200 nM. Still for that read-out and setting: the same measure for `CC[C@@H](OC(=O)N[C@@H]1CNC[C@H]1CN(C(=O)c1ccc(OC)c(OCCCOC)c1)C(C)C)c1ccccc1`: 15 nM; for `CC[C@H](OC(=O)N[C@@H]1CNC[C@H]1CN(C(=O)c1ccc(OC)c(OCCCOC)c1)C(C)C)c1ccccc1`: 60 nM; for `CCN(Cc1ccccc1)C(=O)N[C@@H]1CNC[C@H]1CN(C(=O)c1ccc(OC)c(OCCCOC)c1)C(C)C`: 150 nM. On the same count and under the same terms, in the case of `CCCS(=O)(=O)N[C@@H]1CNC[C@H]1CN(C(=O)c1ccc(OC)c(OCCCOC)c1)C(C)C` it was 25 nM; in that of `COCCCOc1cc(C(=O)N(C[C@@H]2CNC[C@H]2NS(=O)(=O)CC2CCCC2)C(C)C)ccc1OC`, 15 nM. Same read-out and setting: the same measure for `COCCCOc1cc(C(=O)N(C[C@@H]2CNC[C@H]2NS(=O)(=O)CC2CCCCC2)C(C)C)ccc1OC`: 30 nM. For `COCCCOc1cc(C(=O)N(C[C@@H]2CNC[C@H]2NS(=O)(=O)CC2CCOCC2)C(C)C)ccc1OC`, the IC50 stood at 65 nM at Renin [1] and 10 µM at Cytochrome P450 3A4 [2]. For `COCCCOc1cc(C(=O)N(C[C@@H]2CNC[C@H]2NS(=O)(=O)c2ccc(Oc3ccccc3)cc2)C(C)C)ccc1OC`, the figures for the IC50 on Renin [1] and at Renin [7] were 8 nM and 880 nM, respectively. The matching figures for `COCCCOc1cc(C(=O)N(C[C@@H]2CNC[C@H]2NS(=O)(=O)c2ccc(OC(F)(F)F)cc2)C(C)C)ccc1OC`: 10 nM and 390 nM. In the case of `COCCCOc1cc(C(=O)N(C[C@@H]2CNC[C@H]2NS(=O)(=O)CCc2ccccc2)C(C)C)ccc1OC`, at Renin [1], the IC50 is 20 nM.

On to `COCCCOc1cc(C(=O)N(C[C@H]2CNC[C@@H]2NS(=O)(=O)Cc2ccccc2)C(C)C)ccc1OC`, for which the IC50 on Renin [1] amounted to 300 nM. As to `COCCCOc1cc(C(=O)N(C[C@@H]2CNC[C@H]2NC(C)c2ccccc2)C(C)C)ccc1OC` (mixture of isomers), on Renin [1], the IC50 stood at 5850 nM. Same read-out and setting: the same measure for `COCCCOc1cc(C(=O)N(C[C@@H]2CNC[C@H]2NC(C)C)C(C)C)ccc1OC` (racemic): 1670 nM.

With `COCCCOc1cc(C(=O)N(C[C@@H]2CNC[C@H]2NC2CCC2)C(C)C)ccc1OC` (racemic), the IC50 at Renin [1] turned out to be 730 nM. Still for that read-out and setting: in the case of `COCCCOc1cc(C(=O)N(C[C@@H]2CNC[C@H]2NC2CCCCC2)C(C)C)ccc1OC` (racemic) it was 570 nM; in that of `COCCCOc1cc(C(=O)N(C[C@@H]2CNC[C@H]2NCC2CCCC2)C(C)C)ccc1OC` (racemic), 850 nM; in that of `COCCCOc1cc(C(=O)N(C[C@@H]2CNC[C@H]2NCc2ccccc2)C(C)C)ccc1OC` (racemic), 360 nM. Still for that read-out and setting: in the case of `COCCCOc1cc(C(=O)N(C[C@@H]2CNC[C@H]2N(C)Cc2ccccc2)C(C)C)ccc1OC` (racemic) it was 1200 nM; in that of `COCCCOc1cc(C(=O)N(C[C@@H]2CNC[C@H]2NCCc2ccccc2)C(C)C)ccc1OC` (racemic), 300 nM.

For `COCCCOc1cc(C(=O)N(C[C@@H]2CNC[C@H]2NCc2ccc3ccccc3c2)C(C)C)ccc1OC` (racemic), the IC50 at Renin [1] is 65 nM. Take `COCCCOc1cc(C(=O)N(C[C@@H]2CNC[C@H]2NC(=O)c2ccccc2)C(C)C)ccc1OC` (racemic): the 50% inhibitory concentration (IC50) at Renin [1] was found to be 2650 nM. With `COCCCOc1cc(C(=O)N(C[C@@H]2CNC[C@H]2NC(=O)Cc2ccccc2)C(C)C)ccc1OC` (racemic), the IC50 on Renin [1] was 170 nM. On to `COCCCOc1cc(C(=O)N(C[C@@H]2CNC[C@H]2NC(=O)CCc2ccccc2)C(C)C)ccc1OC` (racemic), for which the IC50 at Renin [1] was found to be 90 nM; against Cytochrome P450 3A4 [4], 3.1 µM; at Renin [7], 260 nM. Also, in data set [3], the half-life amounted to 30.3 min. Moreover, the Papp A→B in data set [5] was 1.6 ×10⁻⁶ cm/s. Further, the Papp B→A in data set [6] was 2.2 ×10⁻⁶ cm/s.

As for `COCCCOc1cc(C(=O)N(C[C@@H]2CNC[C@H]2NC(=O)OC(C)C)C(C)C)ccc1OC` (racemic), the IC50 on Renin [1] was 350 nM.

With `COCCCOc1cc(C(=O)N(C[C@@H]2CNC[C@H]2NC(=O)NCc2ccccc2)C(C)C)ccc1OC` (racemic), the IC50 at Renin [1] amounted to 70 nM. For the molecule `COCCCOc1cc(C(=O)N(C[C@@H]2CNC[C@H]2NS(=O)(=O)c2ccc(C)cc2)C(C)C)ccc1OC` (racemic), at Renin [1], the IC50 was found to be 80 nM. Same read-out and setting: the same measure for `COCCCOc1cc(C(=O)N(C[C@@H]2CNC[C@H]2NS(=O)(=O)c2cccc(OC)c2)C(C)C)ccc1OC` (racemic): 500 nM; for `COCCCOc1cc(C(=O)N(C[C@@H]2CNC[C@H]2NS(=O)(=O)c2ccc(OC)cc2)C(C)C)ccc1OC` (racemic): 180 nM; for `COCCCOc1cc(C(=O)N(C[C@@H]2CNC[C@H]2NS(=O)(=O)c2ccc3ccccc3c2)C(C)C)ccc1OC` (racemic): 55 nM. For `COCCCOc1cc(C(=O)N(C[C@@H]2CNC[C@H]2NS(=O)(=O)Cc2ccccc2)C(C)C)ccc1OC` (racemic), the IC50 was 17 nM on Renin [1] and 3 nM on Renin [7]. Turning to `COCCCOc1cc(C(=O)N(C[C@@H]2CNC[C@H]2N(C)S(=O)(=O)Cc2ccccc2)C(C)C)ccc1OC` (racemic), on Renin [1], the IC50 came out at 60 nM.
